Results reported in ChEMBL document CHEMBL1201862, “PubChem BioAssay data set” (2004).
Activity calls are given as the source filed them.

Columns and labels:
[1] = tested on: HEK293; experiment: NOD2 signaling inhibitors in MDP-stimulated cells, cell-based, uHTS, luminescence (AID 2001); type: functional; details: Homo sapiens
[2] = tested on: HEK293; experiment: cells; type: functional, cell-based; details: Homo sapiens
[3] = Shn3 3'UTR reporter inhibitors, dose response, cell-based, Clone20 osteoblasts, firefly luciferase, cherry-picked (AID 624132); type: functional;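 also: firefly luciferase luminescence from reporter carrying the Shn3 3'UTR in osteoblasts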
[4] = tested on: BJ; experiment: cytotoxicity toward BJ-TERT-LT-ST fibroblasts, dose response, cell-based, RAS-independent, luminescence (AID 1935); type: functional; details: Homo sapiens;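 also: BJ fibroblasts immortalized with TERT plus LT and ST oncogenes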
[5] = tested on: HEK293; experiment: cells; type: functional, cell-based; details: Homo sapiens; remark: listed apart in the source
[6] = Luminescence-based dose response cell-based high throughput screening assay for cytotoxic compounds using the IEC-6 intestinal epithelial cell line. [Related pubchem assays: 1858 (Summary AID.), 1825 (Counterscreen.), 1907 (Confirmation screen.)]; type: functional
[7] = tested on: BJ; experiment: cytotoxicity toward BJ-TERT fibroblasts, dose response, cell-based, RAS-independent, luminescence (AID 1933); type: functional; details: Homo sapiens
[8] = tested on: HEK293; experiment: NOD1 signaling inhibitors, primary screen, cell-based, luminescence, uHTS (AID 1578); type: functional; details: Homo sapiens
[9] = cytotoxicity toward DRD oncogenic fibroblasts, dose response, cell-based, non-viral oncogenic, luminescence (AID 1934); type: functional; details: Homo sapiens
[10] = target: Nonstructural protein 1 (Influenza A virus, UniProt Q194T2); type: functional, Influenza A virus (A/California/07/2009(H1N1))
[11] = HepG2 cell cytotoxicity, dose response, cytotoxicity control for Shn3 inhibitor project, CellTiter-Glo, cherry-picked (AID 624134); type: functional, cell-based
[12] = cells; type: functional, cell-based
[13] = target: Nucleotide-binding oligomerization domain-containing protein 2 (Homo sapiens, UniProt Q9HC29); experiment: NOD2 signaling inhibitors, cell-based, luminescence, uHTS, HEK293 (AID 1566); type: functional
[14] = tested on: HEK293; experiment: cells; type: functional, cell-based; details: Homo sapiens; remark: listed apart in the source
[15] = tested on: BJ; experiment: cells; type: functional, cell-based; details: Homo sapiens
[16] = tested on: HEK293; experiment: inhibitors of LMP1-driven NF-kB reporter, dose response, cell-based, HEK293, luciferase, cherry-pick (AID 588343); type: functional; details: Homo sapiens
[17] = cells; type: functional, cell-based; remark: listed apart in the source
[18] = control 3'UTR Renilla luciferase suppression, dose response, counter-screen for Shn3 inhibitor project, cell-based, Clone20-Shn3RL, cherry-picked (AID 624133); type: functional
[19] = tested on: INS1; experiment: beta cell apoptosis inhibitors, cytokine rescue, dose response, luminescence, retest (AID 449756); type: functional, cell-based; details: Rattus norvegicus;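 also: cell death triggered by IL-1 beta plus TNF-alpha plus IFN-gamma mixture; protective hits raise ATP signal compared with cytokine alone wells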
[20] = target: Voltage-gated inwardly rectifying potassium channel KCNH2 (Homo sapiens, UniProt Q12809); experiment: hERG protection from proarrhythmic block, potency, dose response, cell-based, thallium flux (AID 2121); type: ADME
[21] = target: Cytochrome P450 2C9 (Homo sapiens, UniProt P11712); details: Potency
[22] = target: Cytochrome P450 2C19 (Homo sapiens, UniProt P33261); experiment: qHTS Assay for Inhibitors and Substrates of Cytochrome P450 2C19. [Related pubchem assays: 410 ]; type: ADME; details: read-out: Potency
[23] = tested on: H4; experiment: Luminescence Cell-Based Dose Response HTS to Identify Activators of 5'UTR Stem-Loop Driven Prion Protein mRNA Translation in H4 Neuroglioblastoma Cells. [Related pubchem assays: 1829 (Project Summary), 1814 (Primary HTS)]; type: functional; details: Homo sapiens
[24] = Luminescence Cell-Based Dose Confirmation to Identify Activators of 5'UTR Stem-Loop Driven Alpha-Synuclein mRNA Translation in H4 Neuroglioblastoma Cells. [Related pubchem assays: 1829 (Project Summary), 1814 (Primary HTS)]; type: functional
[25] = Luminescence Cell-Based Dose Response to Identify Activators of Luciferase Translation or Activity in H4-C Neuroglioblastoma Cells. [Related pubchem assays: 1829 (Project Summary), 1814 (Primary HTS)]; type: functional
[26] = Luminescence Cell-Based Dose Confirmation HTS to Identify Activators of 5'UTR Stem-Loop Driven Alpha-Synuclein mRNA Translation in H4 Neuroglioblastoma Cells. [Related pubchem assays: 1829 (Project Summary), 1814 (Primary HTS)]; type: functional
[27] = Luminescence Cell-Based Dose Response to Identify Activators of 5'UTR Stem-Loop Driven Prion Protein mRNA Translation in H4-C Neuroglioblastoma Cells. [Related pubchem assays: 1829 (Project Summary), 1814 (Primary HTS)]; type: functional
[28] = target: Procathepsin L (Homo sapiens, UniProt P07711); experiment: cathepsin L inhibitors, dose response, counter-screen for M1/M17 aminopeptidase inhibitor project, biochemical, QFRET, 1536-well (AID 2214)
[29] = target: T1, Aminopeptidase N (Plasmodium falciparum FcB1/Columbia, UniProt O96935); experiment: P. falciparum M1AAP inhibitors, biochemical, fluorogenic H-Leu-NHMec substrate, 1536-well (AID 1445); design: species or system Plasmodium falciparum 3D7, 3D7
T1 sequence (O96935 whole entry): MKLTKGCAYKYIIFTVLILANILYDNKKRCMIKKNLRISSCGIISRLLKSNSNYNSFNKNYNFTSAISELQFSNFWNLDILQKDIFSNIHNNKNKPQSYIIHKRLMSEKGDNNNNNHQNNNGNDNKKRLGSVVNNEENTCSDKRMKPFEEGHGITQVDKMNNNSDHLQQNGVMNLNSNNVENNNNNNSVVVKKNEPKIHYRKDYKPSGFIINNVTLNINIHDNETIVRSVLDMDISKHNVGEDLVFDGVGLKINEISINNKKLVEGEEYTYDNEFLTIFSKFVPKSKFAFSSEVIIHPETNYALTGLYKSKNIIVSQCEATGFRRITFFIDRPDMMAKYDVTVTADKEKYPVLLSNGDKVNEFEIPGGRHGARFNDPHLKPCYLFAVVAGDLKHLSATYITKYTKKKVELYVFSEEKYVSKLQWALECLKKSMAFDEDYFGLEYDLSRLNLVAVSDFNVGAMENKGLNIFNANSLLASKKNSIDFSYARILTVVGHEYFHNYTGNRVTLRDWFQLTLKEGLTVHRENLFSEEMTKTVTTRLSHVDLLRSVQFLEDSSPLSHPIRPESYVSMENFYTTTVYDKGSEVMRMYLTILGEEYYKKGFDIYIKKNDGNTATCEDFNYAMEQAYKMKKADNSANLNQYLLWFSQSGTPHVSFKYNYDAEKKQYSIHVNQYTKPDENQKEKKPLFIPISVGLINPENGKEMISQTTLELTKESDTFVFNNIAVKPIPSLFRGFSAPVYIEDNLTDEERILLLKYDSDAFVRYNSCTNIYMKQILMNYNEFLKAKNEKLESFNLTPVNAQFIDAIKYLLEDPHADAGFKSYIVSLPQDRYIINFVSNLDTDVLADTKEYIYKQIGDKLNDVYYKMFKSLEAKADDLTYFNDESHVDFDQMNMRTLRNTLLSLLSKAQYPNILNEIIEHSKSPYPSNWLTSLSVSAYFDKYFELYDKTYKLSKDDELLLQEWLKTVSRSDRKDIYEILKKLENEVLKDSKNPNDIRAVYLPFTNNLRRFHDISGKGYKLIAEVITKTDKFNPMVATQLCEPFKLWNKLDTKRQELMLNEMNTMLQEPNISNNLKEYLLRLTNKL

[30] = target: Aspartyl aminopeptidase (Plasmodium falciparum 3D7, UniProt Q8I2J3); experiment: Counterscreen for inhibitors of M1 and M17 aminopeptidases: QFRET-based biochemical high throughput dose response assay for inhibitors of the Plasmodium falciparum M18 Aspartyl Aminopeptidase (PFM18AAP). [Related PubChem assays: 1619 (Screening assay (M17LAP inhibitors).), 1445 (Screening assay (M1AAP inhibitors).)]
Sequence of Aspartyl aminopeptidase (Q8I2J3 whole entry): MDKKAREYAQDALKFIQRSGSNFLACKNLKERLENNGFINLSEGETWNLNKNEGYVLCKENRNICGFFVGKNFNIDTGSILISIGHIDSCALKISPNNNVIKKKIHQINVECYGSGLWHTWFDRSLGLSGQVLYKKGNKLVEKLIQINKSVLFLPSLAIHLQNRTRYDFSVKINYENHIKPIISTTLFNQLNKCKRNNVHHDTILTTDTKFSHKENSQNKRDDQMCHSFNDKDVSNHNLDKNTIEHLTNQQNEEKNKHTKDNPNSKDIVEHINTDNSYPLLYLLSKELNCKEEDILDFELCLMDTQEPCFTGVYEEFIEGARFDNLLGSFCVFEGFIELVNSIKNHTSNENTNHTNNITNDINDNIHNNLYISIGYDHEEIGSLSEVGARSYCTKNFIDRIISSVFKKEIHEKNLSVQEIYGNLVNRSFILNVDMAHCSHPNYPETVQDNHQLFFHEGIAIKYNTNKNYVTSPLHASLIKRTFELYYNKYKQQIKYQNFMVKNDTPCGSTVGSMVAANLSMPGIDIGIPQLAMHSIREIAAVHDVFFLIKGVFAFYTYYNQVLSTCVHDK

Sequence of Voltage-gated inwardly rectifying potassium channel KCNH2 (Q12809 whole entry): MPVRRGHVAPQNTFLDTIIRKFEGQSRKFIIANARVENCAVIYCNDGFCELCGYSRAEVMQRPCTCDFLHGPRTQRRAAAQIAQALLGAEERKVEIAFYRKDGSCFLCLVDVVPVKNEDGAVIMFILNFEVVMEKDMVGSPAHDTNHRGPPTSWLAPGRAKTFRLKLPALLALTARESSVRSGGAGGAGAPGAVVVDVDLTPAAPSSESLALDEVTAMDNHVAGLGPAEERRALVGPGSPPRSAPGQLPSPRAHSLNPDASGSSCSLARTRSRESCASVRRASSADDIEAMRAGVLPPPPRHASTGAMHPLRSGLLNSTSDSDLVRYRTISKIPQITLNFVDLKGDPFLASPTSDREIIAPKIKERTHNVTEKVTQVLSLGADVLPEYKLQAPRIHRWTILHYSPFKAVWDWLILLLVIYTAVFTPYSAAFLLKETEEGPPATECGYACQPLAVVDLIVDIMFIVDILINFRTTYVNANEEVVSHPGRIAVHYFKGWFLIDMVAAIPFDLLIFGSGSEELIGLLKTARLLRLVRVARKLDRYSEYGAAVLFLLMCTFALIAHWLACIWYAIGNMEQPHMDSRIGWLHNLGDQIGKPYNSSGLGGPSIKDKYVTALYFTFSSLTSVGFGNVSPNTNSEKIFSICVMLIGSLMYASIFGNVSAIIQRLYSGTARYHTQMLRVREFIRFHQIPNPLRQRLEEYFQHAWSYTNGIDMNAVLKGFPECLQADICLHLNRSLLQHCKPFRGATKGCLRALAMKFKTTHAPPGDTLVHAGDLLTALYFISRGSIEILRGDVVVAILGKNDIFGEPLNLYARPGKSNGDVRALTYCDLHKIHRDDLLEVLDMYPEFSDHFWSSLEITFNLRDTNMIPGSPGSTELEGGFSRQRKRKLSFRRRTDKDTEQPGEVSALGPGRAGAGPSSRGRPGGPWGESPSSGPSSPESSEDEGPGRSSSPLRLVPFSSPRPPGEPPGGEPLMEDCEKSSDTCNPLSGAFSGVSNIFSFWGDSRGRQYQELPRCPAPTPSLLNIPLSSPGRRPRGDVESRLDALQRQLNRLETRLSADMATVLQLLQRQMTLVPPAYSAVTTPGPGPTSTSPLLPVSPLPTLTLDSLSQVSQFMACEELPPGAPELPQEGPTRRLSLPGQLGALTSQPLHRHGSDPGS
Sequence of Nonstructural protein 1 (Q194T2 whole entry): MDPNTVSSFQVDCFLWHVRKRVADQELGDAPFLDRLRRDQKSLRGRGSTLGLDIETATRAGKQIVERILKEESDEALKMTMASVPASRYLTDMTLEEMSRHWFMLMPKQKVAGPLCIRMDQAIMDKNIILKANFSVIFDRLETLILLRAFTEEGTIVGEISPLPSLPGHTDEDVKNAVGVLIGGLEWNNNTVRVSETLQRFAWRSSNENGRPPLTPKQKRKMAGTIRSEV
Sequence of Procathepsin L (P07711 whole entry): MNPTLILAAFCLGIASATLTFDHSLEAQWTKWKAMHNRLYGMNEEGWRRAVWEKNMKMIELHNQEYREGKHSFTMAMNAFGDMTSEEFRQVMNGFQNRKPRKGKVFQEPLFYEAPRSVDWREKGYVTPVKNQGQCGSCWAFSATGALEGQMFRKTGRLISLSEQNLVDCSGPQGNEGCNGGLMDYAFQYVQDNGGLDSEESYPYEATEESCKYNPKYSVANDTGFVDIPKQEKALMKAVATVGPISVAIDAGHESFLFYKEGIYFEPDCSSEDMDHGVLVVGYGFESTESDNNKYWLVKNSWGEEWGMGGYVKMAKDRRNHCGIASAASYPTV
Sequence of Cytochrome P450 2C19 (P33261 whole entry): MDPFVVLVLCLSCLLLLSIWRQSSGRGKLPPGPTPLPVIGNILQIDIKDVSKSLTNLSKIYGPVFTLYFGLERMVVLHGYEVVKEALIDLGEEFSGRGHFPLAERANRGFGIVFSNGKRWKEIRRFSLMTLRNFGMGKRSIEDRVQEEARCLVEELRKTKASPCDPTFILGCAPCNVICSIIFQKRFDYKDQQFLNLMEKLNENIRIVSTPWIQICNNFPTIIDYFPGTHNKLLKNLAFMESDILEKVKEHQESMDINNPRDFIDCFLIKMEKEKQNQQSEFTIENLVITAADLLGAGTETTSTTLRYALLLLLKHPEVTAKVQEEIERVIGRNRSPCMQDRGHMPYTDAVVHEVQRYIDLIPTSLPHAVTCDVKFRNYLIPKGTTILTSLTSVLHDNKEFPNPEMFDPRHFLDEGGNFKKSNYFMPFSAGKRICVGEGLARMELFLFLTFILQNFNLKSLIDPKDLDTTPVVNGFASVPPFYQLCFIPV
Sequence of Cytochrome P450 2C9 (P11712 whole entry): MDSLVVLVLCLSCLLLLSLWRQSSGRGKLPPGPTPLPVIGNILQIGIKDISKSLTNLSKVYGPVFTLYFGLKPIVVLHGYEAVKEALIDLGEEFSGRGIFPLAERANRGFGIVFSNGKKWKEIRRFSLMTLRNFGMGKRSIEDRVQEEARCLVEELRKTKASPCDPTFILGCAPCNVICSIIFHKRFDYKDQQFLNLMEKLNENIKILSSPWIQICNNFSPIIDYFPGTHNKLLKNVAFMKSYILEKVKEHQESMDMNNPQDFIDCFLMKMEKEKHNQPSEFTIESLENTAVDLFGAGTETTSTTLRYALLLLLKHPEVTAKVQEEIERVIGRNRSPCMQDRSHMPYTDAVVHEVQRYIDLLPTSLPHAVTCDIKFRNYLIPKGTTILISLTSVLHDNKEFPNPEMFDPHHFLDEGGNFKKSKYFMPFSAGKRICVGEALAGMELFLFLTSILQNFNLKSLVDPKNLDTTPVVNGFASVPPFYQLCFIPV
Sequence of Nucleotide-binding oligomerization domain-containing protein 2 (Q9HC29 whole entry, the tested form may be a part): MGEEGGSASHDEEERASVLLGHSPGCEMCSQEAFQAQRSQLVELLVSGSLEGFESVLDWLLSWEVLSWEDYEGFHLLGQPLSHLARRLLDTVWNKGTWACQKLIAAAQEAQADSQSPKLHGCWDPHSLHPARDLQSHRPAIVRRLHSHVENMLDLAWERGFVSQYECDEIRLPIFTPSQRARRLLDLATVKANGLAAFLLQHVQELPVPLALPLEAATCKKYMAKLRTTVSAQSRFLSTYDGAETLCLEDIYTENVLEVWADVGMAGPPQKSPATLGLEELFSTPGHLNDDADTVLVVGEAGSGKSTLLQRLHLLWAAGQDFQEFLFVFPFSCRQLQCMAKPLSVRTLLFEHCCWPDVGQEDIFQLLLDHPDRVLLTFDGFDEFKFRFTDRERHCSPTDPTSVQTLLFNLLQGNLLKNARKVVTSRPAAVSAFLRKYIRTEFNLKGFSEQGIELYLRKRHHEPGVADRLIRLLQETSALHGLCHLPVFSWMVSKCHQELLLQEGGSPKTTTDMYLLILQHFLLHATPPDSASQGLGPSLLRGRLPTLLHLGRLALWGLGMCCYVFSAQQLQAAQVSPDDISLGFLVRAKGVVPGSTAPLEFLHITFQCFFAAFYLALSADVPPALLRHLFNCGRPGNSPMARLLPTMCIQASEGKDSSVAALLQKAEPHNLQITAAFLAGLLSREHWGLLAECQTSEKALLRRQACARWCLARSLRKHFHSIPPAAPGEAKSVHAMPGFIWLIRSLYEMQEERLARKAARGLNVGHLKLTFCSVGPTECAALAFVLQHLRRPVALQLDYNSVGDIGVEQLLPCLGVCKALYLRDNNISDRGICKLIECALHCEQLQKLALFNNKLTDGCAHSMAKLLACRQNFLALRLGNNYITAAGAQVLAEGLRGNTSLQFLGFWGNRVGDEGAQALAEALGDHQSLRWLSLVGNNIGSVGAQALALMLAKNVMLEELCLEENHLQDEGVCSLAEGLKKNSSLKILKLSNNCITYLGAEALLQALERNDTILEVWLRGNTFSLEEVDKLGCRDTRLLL

For `CC(=O)NC(c1cccc([N+](=O)[O-])c1)c1ccc2cccnc2c1O` (stereo not given), which IC50 [1] is on record?
Its IC50 is > 20 µM (inactive).

What about the IC50 [2] of the same compound?
Its IC50 is 19.8 µM (active).

And the AC50 [3]?
Its AC50 is 0.889 µM (active).

And the EC50 [4]?
Its EC50 is 7.23 µM (inconclusive).

What about the IC50 [5] of the same compound?
Its IC50 is > 20 µM (inactive).

What about the IC50 [6] of the same compound?
Its IC50 is 1.35 µM (active).

And the EC50 [7]?
The EC50 was 1.7 µM (inconclusive).

And the EC50 [8]?
The EC50 was > 20 µM (inactive).

What about the EC50 [9] of the same compound?
The EC50 was 1.96 µM (inconclusive).

What about the IC50 [10] of the same compound?
Its IC50 is 9.19 µM (active).

And the AC50 [11]?
The AC50 was 0.887 µM (active).

And the EC50 [12]?
Its EC50 is 4.94 µM (active).

What about the EC50 [13] of the same compound?
Its EC50 is > 20 µM (inactive).

And the IC50 [14]?
Its IC50 is > 20 µM (inactive).

And the EC50 [15]?
The EC50 was 10.7 µM (active).

And the AC50 [16]?
The AC50 was 4.67 µM (active).

What about the EC50 [17] of the same compound?
The EC50 was > 350 µM (not active).

And the AC50 [18]?
Its AC50 is > 70 µM (inactive).

And the AC50 [19]?
Its AC50 is 0.521 µM (active).

With `CCOC(=O)N1CCN(C(=O)c2ccc(CN(c3ccc(C)c(C)c3)S(C)(=O)=O)cc2)CC1` as the compound, how does the EC50 [20] read?
The EC50 was 9.85 µM (active).

Which AC50 [21] does the source give for `CC(C)C[C@@H](CC(=O)N[C@@H](CCC(=O)O)CC(=O)O)NC(=O)[C@@H]1CNCC[C@H]1NC(=O)C[C@H](CCCN)NC(=O)C[C@H](CO)NC(=O)[C@@H]1CNCC[C@H]1N` here?
The AC50 was 25.1 µM (inconclusive).

And the AC50 [22]?
Its AC50 is 31.6 µM (inconclusive).

Which results are given for `Cc1cc(-c2nnc(S)o2)c(C)n1-c1ccccc1`?
EC50 [23]: 75.3 µM (active); EC50 [24]: 1.19 µM (active); EC50 [25]: > 12 µM (not active); EC50 [26]: < 0.1 µM (active); EC50 [27]: 2.02 µM (active)

Which results are given for `COc1ccc(OC)c(/C=C2\SC(=S)N(C(C(=O)O)c3ccccc3)C2=O)c1` (stereo not given)?
IC50 [28]: > 59.6 µM (not active); IC50 [29]: 12.1 µM (active); IC50 [30]: > 73.5 µM (not active)
